According to US20230357328A1, “SARS-CoV-2 PROTEIN-DERIVED PEPTIDE AND VACCINE CONTAINING SAME” (ONCOTHERAPY SCIENCE, INC., priority 2020, published 2023):
Entries after “also recorded” stand apart in the source; their conditions may differ. Where two headings read alike, the source gives them in different places.

What was measured:
Type in all cases: cell-based, human
TISI cells = system: TISI cells
[1] = system: HLA-A*24:02-expressing target cells (TISI cells)
[2] = system: HLA-A*24:02-expressing target cells (TISI cells); remark: listed apart in the source
[3] = system: HLA-A*02:01-expressing target cells (T2 cells)
[4] = system: CD8-positive T cells in PBMCs of individuals not infected with SARS-CoV-2 (HLA-A*24:02-positive)
[5] = system: HLA-A*02:01-expressing target cells (T2 cells); remark: listed apart in the source
[6] = system: CD8-positive T cells in PBMCs of individuals who had recovered from COVID-19 (HLA-A*24:02-positive)
[7] = CTL clones from limiting dilution, TISI target cells
[8] = HLA-A*24:02-restricted, peptide-pulsed TISI cells vs TISI cells not pulsed
[9] = HLA-A*24:02-restricted CTL lines, peptide-pulsed TISI cells
[10] = HLA-A*02:01-restricted CTL lines, peptide-pulsed T2 cells
[11] = HLA-A*02:01-restricted, peptide-pulsed T2 cells vs T2 cells not pulsed

Row | Sequence | Peptide-specific IFN-γ production by CTL clones (ELISA) (TISI cells; [7]) | Peptide-specific IFN-γ production (ELISPOT) [1, 8] | IFN-γ production by CTL lines (ELISA) [2, 9] | Peptide-specific IFN-γ production (ELISPOT) [5, 11] | Detection of tetramer-positive CD8-positive T cells recognizing the peptide [6] | other results
1 | AYANSVFNI [Peptide 1] | showed IFN-γ production specific to | peptide-specific IFN-γ production was observed | produced IFN-γ in a peptide-specific manner | peptide-specific IFN-γ production was observed |  | IFN-γ production by CTL lines (ELISA) [3, 10]: produced IFN-γ in a peptide-specific manner; Detection of tetramer-positive CD8-positive T cells recognizing the peptide [4]: detected
2 | FTYASALWEI (an amino acid sequence derived from ORF1ab polyprotein of SARS-CoV-2) [Peptide 10, SARS-CoV-2 ORF1ab-derived 10mer peptide, position 4089] | showed IFN-γ production specific to | peptide-specific IFN-γ production was observed | produced IFN-γ in a peptide-specific manner |  | detected | 
3 | LWLLWPVTL [Peptide 13] |  |  |  |  | detected | Peptide-specific IFN-γ production (ELISPOT) [1]: peptide-specific IFN-γ production was observed; IFN-γ production by CTL lines (ELISA) [2]: produced IFN-γ in a peptide-specific manner; IFN-γ production by CTL lines (ELISA) [3]: produced IFN-γ in a peptide-specific manner; Detection of tetramer-positive CD8-positive T cells recognizing the peptide [4]: detected; Peptide-specific IFN-γ production (ELISPOT) [5]: peptide-specific IFN-γ production was observed
4 | PFAMQMAYRF (an amino acid sequence derived from surface glycoprotein of SARS-CoV-2) [Peptide 5, SARS-CoV-2 S protein-derived 10mer peptide, position 897] |  | peptide-specific IFN-γ production was observed | produced IFN-γ in a peptide-specific manner | no peptide-specific IFN-γ production was observed | detected | 
5 | RYFKYWDQTY [Peptide 12] |  | peptide-specific IFN-γ production was observed |  | peptide-specific IFN-γ production was observed |  | 
6 | RYKLEGYAF [Peptide 9] |  |  |  |  | detected | Peptide-specific IFN-γ production by CTL clones (ELISA) (TISI cells): showed IFN-γ production specific to; Peptide-specific IFN-γ production (ELISPOT) [1]: peptide-specific IFN-γ production was observed; IFN-γ production by CTL lines (ELISA) [2]: produced IFN-γ in a peptide-specific manner; Peptide-specific IFN-γ production (ELISPOT) [5]: no peptide-specific IFN-γ production was observed
7 | SYSLFDMSKF [Peptide 11] |  | peptide-specific IFN-γ production was observed |  | no peptide-specific IFN-γ production was observed |  | 
8 | TAYANSVFNI (an amino acid sequence derived from ORF1ab polyprotein of SARS-CoV-2) [Peptide 2, SARS-CoV-2 ORF1ab-derived 10mer peptide, position 5079] | showed IFN-γ production specific to | peptide-specific IFN-γ production was observed | produced IFN-γ in a peptide-specific manner | peptide-specific IFN-γ production was observed |  | IFN-γ production by CTL lines (ELISA) [3, 10]: produced IFN-γ in a peptide-specific manner
9 | TYASALWEI [Peptide 4] |  |  |  |  | detected | Peptide-specific IFN-γ production (ELISPOT) [1]: peptide-specific IFN-γ production was observed; IFN-γ production by CTL lines (ELISA) [2]: produced IFN-γ in a peptide-specific manner; Peptide-specific IFN-γ production (ELISPOT) [5]: peptide-specific IFN-γ production was observed
10 | VFMSEAKCW (an amino acid sequence derived from ORF1ab polyprotein of SARS-CoV-2) [Peptide 3, SARS-CoV-2 ORF1ab-derived 9mer peptide, position 5184] |  | peptide-specific IFN-γ production was observed |  | no peptide-specific IFN-γ production was observed |  | 
11 | YAYLRKHFSM (an amino acid sequence derived from ORF1ab polyprotein of SARS-CoV-2) [Peptide 15, SARS-CoV-2 ORF1ab-derived 10mer peptide, position 5138] |  | peptide-specific IFN-γ production was observed |  | no peptide-specific IFN-γ production was observed |  | 
12 | YDYLVSTQEF (an amino acid sequence derived from ORF1ab polyprotein of SARS-CoV-2) [Peptide 6, SARS-CoV-2 ORF1ab-derived 10mer peptide, position 3811] |  | peptide-specific IFN-γ production was not found; also recorded: no peptide-specific IFN-γ production was observed |  |  |  | 
13 | YYSQLMCQPI (an amino acid sequence derived from ORF1ab polyprotein of SARS-CoV-2) [Peptide 7, SARS-CoV-2 ORF1ab-derived 10mer peptide, position 2560] | showed IFN-γ production specific to | peptide-specific IFN-γ production was observed | produced IFN-γ in a peptide-specific manner | peptide-specific IFN-γ production was observed |  | Detection of tetramer-positive CD8-positive T cells recognizing the peptide [4]: detected
